According to patent US6410554B1, “Combination therapy for the treatment of benign prostatic hyperplasia” (Merck & Co., Inc., priority 1998, dated 2002):
Counter-ions that a name gives are not always drawn.

melting point: 80 to 83 °C
Structure (SMILES): C[C@@H]1OC(=O)N(C(=O)NCCCN2CCC(c3ccc(F)cc3)CC2)[C@H]1c1ccc(F)c(F)c1 (as salt: hydrochloride)
